The results in this text go back to patent US7429599B2, “Methods for treating or preventing an inflammatory or metabolic condition or inhibiting JNK” (Signal Pharmaceuticals, LLC, priority 2000, dated 2008).

One test deals with T1, His6-JNK2 (Homo sapiens, UniProt P45984).
T1 construct: His6 (N)
T1 sequence (P45984 whole entry): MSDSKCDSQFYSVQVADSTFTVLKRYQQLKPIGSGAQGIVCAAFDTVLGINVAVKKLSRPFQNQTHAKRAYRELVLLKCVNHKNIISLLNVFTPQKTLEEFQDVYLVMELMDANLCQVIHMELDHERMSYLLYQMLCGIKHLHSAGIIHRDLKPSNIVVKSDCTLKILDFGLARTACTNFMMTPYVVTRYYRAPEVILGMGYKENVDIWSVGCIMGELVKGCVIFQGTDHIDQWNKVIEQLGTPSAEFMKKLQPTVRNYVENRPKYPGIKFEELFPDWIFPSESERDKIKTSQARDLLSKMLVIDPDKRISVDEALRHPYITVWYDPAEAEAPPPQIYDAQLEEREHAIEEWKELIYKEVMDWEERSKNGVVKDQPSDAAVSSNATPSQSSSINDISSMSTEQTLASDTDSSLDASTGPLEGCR
Nature of the test: JNK2 Assay (c-Jun phosphorylation, 32P-ATP filter plate). The following applies: IC50 value in the JNK2 Assay, c-Jun phosphorylation reduced to 50% of control; GST-c-Jun(1-79), 11 μM ATP. Type of test: biochemical. The protocol:
To 10 μL of the test compound in 20%/DMSO/80% dilutien buffer consisting of 20 mM HELPS (pH 7.6), 0.1 mM; EDTA, 2.5 mM magnesium chloride, 0.004% Triton×100, 2 μg/mL leupeptin, 20 mM β-glycerolphosphate, 0.1 mM sodium vanadate, and 2 mM DTT in water is added 30 μL of 50 ng His6-JNK2 in the same dilution buffer. The mixture is preincubated for 30 minutes at room temperature. Sixty microliter of 10 μg GST-c-Jun(1-79) in assay buffer consisting of 20 mM HEPES (pH 7.6), 50 mM sodium chloride, 0.1 mM EDTA, 24 mM magnesium chloride, 1 mM DTT, 25 mM PNPP, 0.05% Triton×100, 11 μM ATP, and 0.5 μCi γ-^32P ATP in water is added and the reaction is allowed to proceed for 1 hour at room temperature. The c-Jun phosphorylation is terminated by addition of 150 μL of 12.5% trichloroacetic acid. After 30 minutes, the precipitate is harvested onto a filter plate, diluted with 50 μL of the scintillation fluid and quantified by a counter. The IC50 values are calculated as the concentration of the test compound at which the c-Jun phosphorylation is reduced to 50% of the control value.
For `O=C(c1ccc(Nc2nccc(-c3ccc(Cl)cc3)n2)cc1)N1CCC2(CC1)OCCO2` [Compound 17-139], the IC50 was no more than 10 µM.

The same test, now with this note: c-Jun phosphorylation reduced to 50% of control; GST-c-Jun(1-79), 11 μM ATP; read-out: IC50 value in the JNK2 Assay.
Regarding `NC(=O)c1ccc(Nc2nccc(-c3ccc(Cl)cc3)n2)cc1` [Compound 1, 4-{[4-(4-Chlorophenyl)pyrimidin-2-yl]amino}benzamide], the IC50 is no more than 10 µM.

Consider `NC(=O)c1ccc(Nc2nccc(-c3cccs3)n2)cc1` [Compound 3-2], for which the IC50 was no more than 1 µM.

Turning to `NC(=O)c1ccc(Nc2nccc(-c3ccccc3)n2)cc1` [Compound 3-4], the IC50 was no more than 1 µM.

On to `NC(=O)c1ccc(Nc2nccc(-c3ccc(S(=O)(=O)c4ccccn4)cc3)n2)cc1` [Compound 3-9], for which the half-inhibitory concentration (IC50) was no more than 1 µM.

Turning to `NC(=O)c1ccc(Nc2nccc(-c3ccc(SCCCN4CCOCC4)cc3)n2)cc1` [Compound 3-10], the IC50 is no more than 10 µM.

Regarding `CN(C)CCCSc1ccc(-c2ccnc(Nc3ccc(C(N)=O)cc3)n2)cc1` [Compound 3-11], the IC50 was no more than 10 µM.

As to `CN1CCN(CCCSc2ccc(-c3ccnc(Nc4ccc(C(N)=O)cc4)n3)cc2)CC1` [Compound 3-12], the IC50 was no more than 10 µM.

In the case of `NC(=O)c1ccc(Nc2nccc(-c3ccc(S(=O)(=O)c4cccnc4)cc3)n2)cc1` [Compound 3-13], the IC50 was no more than 1 µM.

Consider `NC(=O)c1ccc(Nc2nccc(-c3ccc(SCCCO)cc3)n2)cc1` [Compound 3-14], for which the concentration for half-maximal inhibition (IC50) is no more than 1 µM.

As for `NC(=O)c1ccc(Nc2nccc(-c3ccc(S(=O)(=O)CCCO)cc3)n2)cc1` [Compound 3-15], the IC50 is no more than 1 µM.

As for `CN1CCC(S(=O)(=O)c2ccc(-c3ccnc(Nc4ccc(C(N)=O)cc4)n3)cc2)CC1` [Compound 3-16], the IC50 was no more than 10 µM.

`CN1CCN(S(=O)(=O)c2ccc(-c3ccnc(Nc4ccc(C(N)=O)cc4)n3)cc2)CC1` [Compound 3-17]: the IC50 was no more than 10 µM.

With `NC(=O)c1ccc(Nc2nccc(-c3ccc(Br)cc3)n2)cc1` [Compound 3-22], the IC50 is no more than 10 µM.

Turning to `CCOc1ccc(-c2ccnc(Nc3ccc(C(N)=O)cc3)n2)cn1` [Compound 3-23], the IC50 was no more than 1 µM.

In the case of `COc1ccc(-c2ccnc(Nc3ccc(C(N)=O)cc3)n2)cn1` [Compound 3-24], the half-maximal inhibitory concentration (IC50) was no more than 1 µM.

Regarding `CN(C)c1ccc(-c2ccnc(Nc3ccc(C(N)=O)cc3)n2)cn1` [Compound 3-25], the 50% inhibitory concentration (IC50) was no more than 1 µM.

Consider `NC(=O)c1ccc(Nc2nccc(-c3ccc(N4CCCCC4)cc3)n2)cc1` [Compound 3-26], for which the IC50 is no more than 10 µM.

As to `NC(=O)c1ccc(Nc2nccc(-c3ccc([N+](=O)[O-])cc3)n2)cc1` [Compound 3-27], the concentration for half-maximal inhibition (IC50) is no more than 10 µM.

Turning to `CN(C)c1ccc(-c2ccnc(Nc3ccc(C(N)=O)cc3)n2)cc1` [Compound 3-29], the IC50 is no more than 10 µM.

For the molecule `NC(=O)c1ccc(Nc2nccc(-c3ccc(N4CCOCC4)cc3)n2)cc1` [Compound 3-30], the IC50 is no more than 10 µM.

In the case of `NC(=O)c1ccc(Nc2nccc(-c3ccc4ccccc4c3)n2)cc1` [Compound 3-34], the IC50 is no more than 10 µM.

As to `NC(=O)c1ccc(Nc2nccc(-c3ccc(-n4ccnc4)cc3)n2)cc1` [Compound 3-36], the IC50 was no more than 10 µM.

Regarding `Cc1cnc(Nc2ccc(C(N)=O)cc2)nc1-c1ccc(Cl)cc1` [Compound 3-37], the IC50 is no more than 10 µM.

`NC(=O)c1ccc(Nc2nccc(-c3ccc(C(=O)O)cc3)n2)cc1` [Compound 3-40]: the IC50 was no more than 1 µM.

Turning to `CN(C)C(=O)c1ccc(Nc2nccc(-c3ccc(Cl)cc3)n2)cc1` [Compound 17-2], the IC50 is no more than 10 µM.

Regarding `CNC(=O)c1ccc(Nc2nccc(-c3ccc(Cl)cc3)n2)cc1` [Compound 17-3], the IC50 is no more than 10 µM.

In the case of `CN(C)C(=O)c1ccc(Nc2nccc(-c3ccc(Br)cc3)n2)cc1` [Compound 17-18], the IC50 was no more than 10 µM.

Turning to `O=C(c1ccc(Nc2nccc(-c3ccc(Cl)cc3)n2)cc1)N1CCC(O)CC1` [Compound 17-20], the concentration for half-maximal inhibition (IC50) is no more than 1 µM.

As to `O=C(NCCCn1ccnc1)c1ccc(Nc2nccc(-c3ccc(Cl)cc3)n2)cc1` [Compound 17-21], the IC50 is no more than 1 µM.

Regarding `CC(=O)NCCNC(=O)c1ccc(Nc2nccc(-c3ccc(Cl)cc3)n2)cc1` [Compound 17-22], the 50% inhibitory concentration (IC50) was no more than 1 µM.

With `O=C(NCCCN1CCCCC1)c1ccc(Nc2nccc(-c3ccc(Cl)cc3)n2)cc1` [Compound 17-23], the IC50 is no more than 10 µM.

On to `COCCNC(=O)c1ccc(Nc2nccc(-c3ccc(Cl)cc3)n2)cc1` [Compound 17-24], for which the IC50 is no more than 1 µM.

Consider `O=C(NCCCO)c1ccc(Nc2nccc(-c3ccc(Cl)cc3)n2)cc1` [Compound 17-25], for which the IC50 was no more than 10 µM.

`CC(O)CNC(=O)c1ccc(Nc2nccc(-c3ccc(Cl)cc3)n2)cc1` (centres unmarked) [Compound 17-26]: the concentration for half-maximal inhibition (IC50) was no more than 10 µM.

For `O=C(c1ccc(Nc2nccc(-c3ccc(Cl)cc3)n2)cc1)N1CCC[C@@H]1CO` [Compound 17-27], the IC50 was no more than 10 µM.

Regarding `O=C(c1ccc(Nc2nccc(-c3ccc(Cl)cc3)n2)cc1)N1CCC(O)C1` (centres unmarked) [Compound 17-28], the IC50 was no more than 10 µM.

In the case of `CC(=O)N1CCN(C(=O)c2ccc(Nc3nccc(-c4ccc(S(=O)(=O)c5ccncc5)cc4)n3)cc2)CC1` [Compound 17-29], the IC50 is no more than 1 µM.

Consider `O=C(c1ccc(Nc2nccc(-c3ccc(S(=O)(=O)c4ccncc4)cc3)n2)cc1)N1CCN(C(=O)c2ccco2)CC1` [Compound 17-30], for which the IC50 is no more than 1 µM.

For `CN(C)C(=O)c1ccc(Nc2nccc(-c3ccc(SCCCO)cc3)n2)cc1` [Compound 17-31], the IC50 was no more than 1 µM.

For the molecule `CC(C)NC(=O)CN1CCN(C(=O)c2ccc(Nc3nccc(-c4ccc(SCCCO)cc4)n3)cc2)CC1` [Compound 17-32], the IC50 was no more than 1 µM.

As to `CC(=O)N1CCN(C(=O)c2ccc(Nc3nccc(-c4ccc(SCCCO)cc4)n3)cc2)CC1` [Compound 17-33], the IC50 is no more than 1 µM.

For `O=C(c1ccc(Nc2nccc(-c3ccc(SCCCO)cc3)n2)cc1)N1CCN(C(=O)c2ccco2)CC1` [Compound 17-34], the concentration for half-maximal inhibition (IC50) was no more than 1 µM.

As to `CCN1CCN(C(=O)c2ccc(Nc3nccc(-c4ccc(Cl)cc4)n3)cc2)CC1` [Compound 17-35], the IC50 is no more than 10 µM.

`CCC(=O)N1CCN(C(=O)c2ccc(Nc3nccc(-c4ccc(Cl)cc4)n3)cc2)CC1` [Compound 17-37]: the IC50 is no more than 1 µM.

As for `O=C(NCCCN1CCCC1=O)c1ccc(Nc2nccc(-c3ccc(Cl)cc3)n2)cc1` [Compound 17-54], the IC50 is no more than 10 µM.

Consider `O=C(NCCCN1CCOCC1)c1ccc(Nc2nccc(-c3ccc(Cl)cc3)n2)cc1` [Compound 17-86], for which the IC50 was no more than 10 µM.

For `COC(=O)CNC(=O)c1ccc(Nc2nccc(-c3ccc(Cl)cc3)n2)cc1` [Compound 17-91], the IC50 is no more than 10 µM.

Consider `O=C(NCCCCO)c1ccc(Nc2nccc(-c3ccc(Cl)cc3)n2)cc1` [Compound 17-106], for which the IC50 is no more than 10 µM.

`O=C(NCCc1ccccn1)c1ccc(Nc2nccc(-c3ccc(Cl)cc3)n2)cc1` [Compound 17-118]: the IC50 was no more than 10 µM.

As to `O=C(Nc1ccc2[nH]ncc2c1)c1ccc(Nc2nccc(-c3ccc(Cl)cc3)n2)cc1` [Compound 17-119], the IC50 was no more than 10 µM.

As for `O=C(Nc1nc2ccccc2[nH]1)c1ccc(Nc2nccc(-c3ccc(Cl)cc3)n2)cc1` [Compound 17-121], the IC50 is no more than 10 µM.

As for `CN1CCN(C(=O)c2ccc(Nc3nccc(-c4ccc(Cl)cc4)n3)cc2)CC1` [Compound 17-127], the IC50 was no more than 1 µM.

For the molecule `O=C(c1ccc(Nc2nccc(-c3ccc(Cl)cc3)n2)cc1)N1CCN(Cc2ccc3c(c2)OCO3)CC1` [Compound 17-128], the IC50 was no more than 10 µM.

Consider `CC(=O)N1CCN(C(=O)c2ccc(Nc3nccc(-c4ccc(Cl)cc4)n3)cc2)CC1` [Compound 17-129], for which the half-inhibitory concentration (IC50) is no more than 1 µM.

Turning to `CCN(CC)C(=O)C1CCCN(C(=O)c2ccc(Nc3nccc(-c4ccc(Cl)cc4)n3)cc2)C1` (centres unmarked) [Compound 17-130], the IC50 was no more than 10 µM.

Turning to `O=CN1CCN(C(=O)c2ccc(Nc3nccc(-c4ccc(Cl)cc4)n3)cc2)CC1` [Compound 17-131], the IC50 was no more than 10 µM.

With `CCCNC(=O)c1ccc(Nc2nccc(-c3ccc(Cl)cc3)n2)cc1` [Compound 17-132], the IC50 is no more than 10 µM.

For the molecule `O=C(c1ccc(Nc2nccc(-c3ccc(Cl)cc3)n2)cc1)N1CCOCC1` [Compound 17-133], the IC50 is no more than 10 µM.

In the case of `CC(=O)c1ccc(N2CCN(C(=O)c3ccc(Nc4nccc(-c5ccc(Cl)cc5)n4)cc3)CC2)cc1` [Compound 17-134], the IC50 was no more than 10 µM.

In the case of `COc1ccccc1N1CCN(C(=O)c2ccc(Nc3nccc(-c4ccc(Cl)cc4)n3)cc2)CC1` [Compound 17-135], the IC50 was no more than 10 µM.

On to `O=C(c1ccc(Nc2nccc(-c3ccc(Cl)cc3)n2)cc1)N1CCN(c2ccc([N+](=O)[O-])cc2)CC1` [Compound 17-136], for which the IC50 was no more than 10 µM.

For the molecule `CCOC(=O)N1CCN(C(=O)c2ccc(Nc3nccc(-c4ccc(Cl)cc4)n3)cc2)CC1` [Compound 17-137], the IC50 is no more than 1 µM.

On to `O=C(c1ccc(Nc2nccc(-c3ccc(Cl)cc3)n2)cc1)N1CCC(c2ccccc2)CC1` [Compound 17-140], for which the IC50 is no more than 10 µM.

As for `CC(C)NC(=O)CN1CCN(C(=O)c2ccc(Nc3nccc(-c4ccc(Cl)cc4)n3)cc2)CC1` [Compound 17-141], the IC50 is no more than 1 µM.

The term IC50 denotes the concentration that inhibits the measured activity by half.
